These results are taken from US10526389B2, “Peptides and combinations of peptides for use in immunotherapy against lung cancer, including NSCLC and other cancers” (Immatics Biotechnologies GmbH, priority 2015, dated 2020).

The test system of this test is CD8+ T cells. The test is described as follows: In vitro immunogenicity of HLA-A*24 peptides (CD8+ T-cell priming with aAPCs, multimer staining). The class given is cell-based, human. As for the experimental part:
In order to obtain information regarding the immunogenicity of the TUMAPs of the present invention, the inventors performed investigations using an in vitro T-cell priming assay based on repeated stimulations of CD8+ T cells with artificial antigen presenting cells (aAPCs) loaded with peptide/MHC complexes and anti-CD28 antibody.
Generation of pMHC/anti-CD28 coated beads, T-cell stimulations and readout was performed in a highly defined in vitro system using four different pMHC molecules per stimulation condition and 8 different pMHC molecules per readout condition.
The purified co-stimulatory mouse IgG2a anti human CD28 Ab 9.3 (Jung et al., 1987) was chemically biotinylated using Sulfo-N-hydroxysuccinimidobiotin as recommended by the manufacturer (Perbio, Bonn, Germany). Beads used were 5.6 μm diameter streptavidin coated polystyrene particles (Bangs Laboratories, Illinois, USA).
800.000 beads/200 μl were coated in 96-well plates in the presence of 4×12.5 ng different biotin-pMHC, washed and 600 ng biotin anti-CD28 were added subsequently in a volume of 200 μl. Stimulations were initiated in 96-well plates by co-incubating 1×10^6 CD8+ T cells with 2×10^5 washed coated beads in 200 μl TCM supplemented with 5 ng/ml IL-12 (PromoCell) for 3 days at 37° C. Half of the medium was then exchanged by fresh TCM supplemented with 80 U/ml IL-2 and incubating was continued for 4 days at 37° C. This stimulation cycle was performed for a total of three times. For the pMHC multimer readout using 8 different pMHC molecules per condition, a two-dimensional combinatorial coding approach was used as previously described (Andersen et al., 2012) with minor modifications encompassing coupling to 5 different fluorochromes. Finally, multimeric analyses were performed by staining the cells with Live/dead near IR dye (Invitrogen, Karlsruhe, Germany), CD8-FITC antibody clone SK1 (BD, Heidelberg, Germany) and fluorescent pMHC multimers. For analysis, a BD LSRII SORP cytometer equipped with appropriate lasers and filters was used. Peptide specific cells were calculated as percentage of total CD8+ cells. Evaluation of multimeric analysis was done using the FlowJo software (Tree Star, Oregon, USA). In vitro priming of specific multimer+CD8+ lymphocytes was detected by comparing to negative control stimulations.
Exemplary flow cytometry results after TUMAP-specific multimer staining for 3 peptides of the invention are shown in FIGS. 3A-3E together with corresponding negative controls.

With “C6orf132-001 (RYGSPINTF; listed as Homo sapiens)”, the “in vitro immunogenicity: donors” value was “+++ (50%-69% = +++)” and the “in vitro immunogenicity: wells” value was “+ (<20% = +)”.

In the case of “PSMA4-001 (LYIGWDKHYGF; listed as Homo sapiens)”, the “in vitro immunogenicity: donors” value is reported as “++++ (>= 70% = ++++)” and the “in vitro immunogenicity: wells” value is listed as “+ (<20% = +)”.

With “MREG-001 (RYLFVVDRL; listed as Homo sapiens)”, the “in vitro immunogenicity: donors” value is listed as “++++ (>= 70% = ++++)” and the “in vitro immunogenicity: wells” value is “++++ (>= 70% = ++++)”.

In the case of “COL6A3-013 (EYQPEMLEKF; listed as Homo sapiens)”, the “in vitro immunogenicity: donors” value is reported as “+ (<20% = +)” and the “in vitro immunogenicity: wells” value was “+ (<20% = +)”.

For the substance “VFMKDGFFYF (listed as Homo sapiens) [SEQ ID No. 34]”, the “in vitro immunogenicity: donors” value is “++ (20%-49% = ++)” and the “in vitro immunogenicity: wells” value was “+ (<20% = +)”.

For the substance “DYR-001 (VYTZIQSRF; listed as Homo sapiens)”, the “in vitro immunogenicity: donors” value was “++ (20%-49% = ++)” and the “in vitro immunogenicity: wells” value was “+ (<20% = +)”.

Consider “KFLEHTNFEF (listed as Homo sapiens) [SEQ ID No. 39]”, for which the “in vitro immunogenicity: donors” value is “++ (20%-49% = ++)” and the “in vitro immunogenicity: wells” value was “+ (<20% = +)”.

In the case of “DDX5-007 (NYTNGSFGSNF; listed as Homo sapiens)”, the “in vitro immunogenicity: donors” value was “+ (<20% = +)” and the “in vitro immunogenicity: wells” value was “+ (<20% = +)”.

“VYTSWQIPQKF (listed as Homo sapiens) [SEQ ID No. 23]”: the “in vitro immunogenicity: donors” value is on record as “+ (<20% = +)” and the “in vitro immunogenicity: wells” value is “+ (<20% = +)”.

Regarding “COL12A1-003 (SYSIGIANF; listed as Homo sapiens)”, the “in vitro immunogenicity: donors” value is “++++ (>= 70% = ++++)” and the “in vitro immunogenicity: wells” value is “+ (<20% = +)”.

For the substance “OLFML2B-002 (YYYGNTLVEF; listed as Homo sapiens)”, the “in vitro immunogenicity: donors” value was “++ (20%-49% = ++)” and the “in vitro immunogenicity: wells” value is “+ (<20% = +)”.

Consider “KLRD-001 (QYLFPSFETF; listed as Homo sapiens)”, for which the “in vitro immunogenicity: donors” value is on record as “++++ (>= 70% = ++++)” and the “in vitro immunogenicity: wells” value was “+ (<20% = +)”.

In the case of “RASA2-001 (YYVDKLFNTI; listed as Homo sapiens)”, the “in vitro immunogenicity: donors” value is on record as “++ (20%-49% = ++)” and the “in vitro immunogenicity: wells” value is on record as “+ (<20% = +)”.

“ZNF697-001 (TYLTNHLRL; listed as Homo sapiens)”: the “in vitro immunogenicity: donors” value is on record as “++++ (>= 70% = ++++)” and the “in vitro immunogenicity: wells” value is reported as “++ (20%-49% = ++)”.

For “RYTLHINTL (listed as Homo sapiens) [SEQ ID No. 43]”, the “in vitro immunogenicity: donors” value is reported as “++ (20%-49% = ++)” and the “in vitro immunogenicity: wells” value is on record as “+ (<20% = +)”.

Regarding “XPR-001 (VYPLALYGF; listed as Homo sapiens)”, the “in vitro immunogenicity: donors” value is “++++ (>= 70% = ++++)” and the “in vitro immunogenicity: wells” value is “++ (20%-49% = ++)”.

In the case of “PPTC-001 (HYFNTPFQL; listed as Homo sapiens)”, the “in vitro immunogenicity: donors” value is “++++ (>= 70% = ++++)” and the “in vitro immunogenicity: wells” value is recorded as “++ (20%-49% = ++)”.

With “KYLEKYYNL (listed as Homo sapiens) [SEQ ID No. 30]”, the “in vitro immunogenicity: donors” value is recorded as “++++ (>= 70% = ++++)” and the “in vitro immunogenicity: wells” value is given as “++ (20%-49% = ++)”.

For the substance “LAPTM5-001 (SYMEVPTYLNF; listed as Homo sapiens)”, the “in vitro immunogenicity: donors” value is on record as “++ (20%-49% = ++)” and the “in vitro immunogenicity: wells” value is reported as “+ (<20% = +)”.

As to “ABCA13-003 (EYLPEFLHTF; listed as Homo sapiens)”, the “in vitro immunogenicity: donors” value was “++ (20%-49% = ++)” and the “in vitro immunogenicity: wells” value is given as “+ (<20% = +)”.

As to “TPS-001 (IYTRVTYYL; listed as Homo sapiens)”, the “in vitro immunogenicity: donors” value is given as “++++ (>= 70% = ++++)” and the “in vitro immunogenicity: wells” value is “++ (20%-49% = ++)”.

For “MUC16-001 (TYSEKTTLF; listed as Homo sapiens)”, the “in vitro immunogenicity: donors” value is reported as “++ (20%-49% = ++)” and the “in vitro immunogenicity: wells” value is on record as “+ (<20% = +)”.

As for “FAM83A-001 (PFLQASPHF; listed as Homo sapiens)”, the “in vitro immunogenicity: donors” value is given as “++++ (>= 70% = ++++)” and the “in vitro immunogenicity: wells” value is on record as “++ (20%-49% = ++)”.

With “PVRL1-001 (IYNPSMGVSVL; listed as Homo sapiens)”, the “in vitro immunogenicity: donors” value was “++ (20%-49% = ++)” and the “in vitro immunogenicity: wells” value is reported as “+ (<20% = +)”.

In the case of “TUBGCP3-001 (FYQGIVQQF; listed as Homo sapiens)”, the “in vitro immunogenicity: donors” value is given as “++ (20%-49% = ++)” and the “in vitro immunogenicity: wells” value is listed as “+ (<20% = +)”.

In the case of “ABCC1-001 (VYVTIDENNIL; listed as Homo sapiens)”, the “in vitro immunogenicity: donors” value was “++ (20%-49% = ++)” and the “in vitro immunogenicity: wells” value is “+ (<20% = +)”.

For “IQGAP1-001 (TYAALNSKATF; listed as Homo sapiens)”, the “in vitro immunogenicity: donors” value is on record as “+ (<20% = +)” and the “in vitro immunogenicity: wells” value is “+ (<20% = +)”.

Turning to “DCSTA-001 (KYIEAIQWI; listed as Homo sapiens)”, the “in vitro immunogenicity: donors” value was “++++ (>= 70% = ++++)” and the “in vitro immunogenicity: wells” value is listed as “++ (20%-49% = ++)”.

For “LYQILQGIVF (listed as Homo sapiens) [SEQ ID No. 161]”, the “in vitro immunogenicity: donors” value is “++++ (>= 70% = ++++)” and the “in vitro immunogenicity: wells” value is “+ (<20% = +)”.

As for “RYISPDQLADL (listed as Homo sapiens) [SEQ ID No. 47]”, the “in vitro immunogenicity: donors” value was “+++ (50%-69% = +++)” and the “in vitro immunogenicity: wells” value was “+ (<20% = +)”.

On to “ZBED5-001 (AYKDKDISFF; listed as Homo sapiens)”, for which the “in vitro immunogenicity: donors” value is recorded as “++++ (>= 70% = ++++)” and the “in vitro immunogenicity: wells” value was “+ (<20% = +)”.

With “TTC13-001 (RYLEYFEKI; listed as Homo sapiens)”, the “in vitro immunogenicity: donors” value is “++++ (>= 70% = ++++)” and the “in vitro immunogenicity: wells” value is “+++ (50%-69% = +++)”.

For the substance “AIFM2-001 (AYKPGALTF; listed as Homo sapiens)”, the “in vitro immunogenicity: donors” value is on record as “++ (20%-49% = ++)” and the “in vitro immunogenicity: wells” value was “+ (<20% = +)”.

For the substance “SLC-003 (RYFPTQALNF; listed as Homo sapiens)”, the “in vitro immunogenicity: donors” value is recorded as “+ (<20% = +)” and the “in vitro immunogenicity: wells” value is listed as “+ (<20% = +)”.

For the substance “RFMDGHITF (listed as Homo sapiens) [SEQ ID No. 25]”, the “in vitro immunogenicity: donors” value is reported as “++ (20%-49% = ++)” and the “in vitro immunogenicity: wells” value is “+ (<20% = +)”.

As for “TYKYVDINTF (listed as Homo sapiens) [SEQ ID No. 159]”, the “in vitro immunogenicity: donors” value is recorded as “+++ (50%-69% = +++)” and the “in vitro immunogenicity: wells” value is given as “+ (<20% = +)”.

Take “RYLEKFYGL (listed as Homo sapiens) [SEQ ID No. 26]”: the “in vitro immunogenicity: donors” value was “++++ (>= 70% = ++++)” and the “in vitro immunogenicity: wells” value is recorded as “+ (<20% = +)”.

As for “HSPBP-001 (RYLEAGAAGLRW; listed as Homo sapiens)”, the “in vitro immunogenicity: donors” value is on record as “+ (<20% = +)” and the “in vitro immunogenicity: wells” value is “+ (<20% = +)”.

Regarding “TRPM2-001 (VYHSYLTIF; listed as Homo sapiens)”, the “in vitro immunogenicity: donors” value was “++++ (>= 70% = ++++)” and the “in vitro immunogenicity: wells” value is “++ (20%-49% = ++)”.

Take “AHD-001 (EYSDVLAKLAF; listed as Homo sapiens)”: the “in vitro immunogenicity: donors” value is given as “+++ (50%-69% = +++)” and the “in vitro immunogenicity: wells” value is “+ (<20% = +)”.

With “FKBP10-002 (TYIGQGYII; listed as Homo sapiens)”, the “in vitro immunogenicity: donors” value is on record as “++++ (>= 70% = ++++)” and the “in vitro immunogenicity: wells” value was “+ (<20% = +)”.

For “RYLDSLKAIVF (listed as Homo sapiens) [SEQ ID No. 28]”, the “in vitro immunogenicity: donors” value is “++++ (>= 70% = ++++)” and the “in vitro immunogenicity: wells” value was “+ (<20% = +)”.

With “KDM6B-001 (RYGGSFAEL; listed as Homo sapiens)”, the “in vitro immunogenicity: donors” value is given as “++ (20%-49% = ++)” and the “in vitro immunogenicity: wells” value was “+ (<20% = +)”.

Turning to “TYNPEIYVI (listed as Homo sapiens) [SEQ ID No. 35]”, the “in vitro immunogenicity: donors” value was “++++ (>= 70% = ++++)” and the “in vitro immunogenicity: wells” value is reported as “++ (20%-49% = ++)”.

For “SAMD9L-001 (IYQRWKDLL; listed as Homo sapiens)”, the “in vitro immunogenicity: donors” value is listed as “+++ (50%-69% = +++)” and the “in vitro immunogenicity: wells” value is “+ (<20% = +)”.
